Measured values from patent publication US20230201151A1, “FORMULATIONS AND METHODS FOR TREATING ACUTE RESPIRATORY DISTRESS SYNDROME, ASTHMA, OR ALLERGIC RHINITIS” (UNIVERSITY OF FLORIDA RESEARCH FOUNDATION, INC., priority 2020, published 2023).

System: HBECs
Assay: TEER (epithelial barrier function) in differentiated HBECs, Ussing chamber
Format: cell-based, human
Experimental: High individual variation in benzamil-sensitive current and TEER in HBECs. In an Ussing chamber-based experimental design, basal short-circuit current (Isc) and transepithelial electrical resistance (TEER) were recorded in differentiated HBECs from two lung donors that were grown on snapwells at an air-liquid interface for 28 to 35 days. Benzamil, a potent ENaC blocker was used to determine ENaC activity by calculating benzamil-sensitive Isc from changes in Isc that occur 15 minutes after adding 6 μM benzamil to the apical side of cells. […] Therefore, normalized data were used for all subsequent experiments for statistical analyses relating to FIGS. 13-18.
Basal treatment with cytokines [IL-13 (Abcam), IL-4 (PeproTech), TNF-α, IFN-γ and TGF-β1 (R&D Systems)] diluted in ALI medium started as early as day 14 post differentiation. Individual cytokines or cytokine cocktails were added to the culture medium at the desired concentrations and cells were incubated with the cytokines for a maximum of 16 days. ALI medium containing cytokines was changed every two days. Age-matched HBECs were assigned to the following treatment groups:
II Time-dependent studies: These studies were done using a concentration that ensured maximum inhibition of benzamil-sensitive Isc and TEER. HBECs were treated with respective cytokines for 2, 4, 6, 8, 10, 12, 14, or 16 days. IFN-γ, TNF-α or TGF-β1 at 1 ng/mL, IL-13 at 20 ng/mL and IL-4 at 2 ng/mL were used.
III Cytokine cocktails: were prepared using IFN-γ and TNF-α at 0.05, 0.5, 2.5, 5 and 10 ng/mL while TNF-α, IFN-γ and TGF-β1 at 1 ng/mL for each of the cytokines was added to the culture media for 7 days.
Ussing chamber experiments: Snapwells with differentiated HBECs that were incubated with cytokines or age-matched HBECs without cytokine exposure were mounted in Ussing chambers (Physiologic Instruments), and cells were either bathed in isotonic ringer solution containing 113.8 mM Na^+, 93.6 mM Cl^−, 25 mM HCO3^−, 5.2 mM K^+, 2.4 mM HPO4^−, 0.4 mM H2PO4^−, 1.2 mM Mg^2+, 1.2 mM Ca^2+, and 75 mM mannitol, or in AA-EC01. Glucose (5 mM) was added to the basal side, and chambers were bubbled with 95% O2 and 5% CO2 at 37° C. AA-EC01 contained 8 mM lysine, 8 mM tryptophan, 8 mM arginine, 8 mM glutamine, and 1.2 mM tyrosine, and AANC contained 8 mM leucine, 8 mM cysteine, 8 mM isoleucine, 8 mM aspartic acid and 8 mM glutamate (Ajinomoto), both diluted in an electrolyte solution containing 113.8 mM Na^t, 93.6 mM Cl^−, 25 mM HCO3^−, 5.2 mM K^+, 2.4 mM HPO4^−, 0.4 mM H2PO4^−, 1.2 mM Mg′, 1.2 mM Ca^2+ and 40 mM mannitol at pH 7.4 and 300 mOsm. Cell cultures were allowed to equilibrate in the Ussing chambers for 30 minutes while continuously voltage clamped to 0 mV. Basal short circuit current (Isc) and transepithelial electrical resistance (TEER) were recorded at 30-second intervals, and benzamil-sensitive Isc was calculated from the difference of basal Isc recorded after 30 minutes and Isc measured at 15 minutes after adding 6 μM of benzamil (ThermoFisher) to the apical side.
Statistical analysis: Results are presented as mean±standard error of mean (SEM). Analyses were performed with OriginPro 2018 software package. For each treatment group, values were tested for normal distribution using the Shapiro-Wilk normality test. […] The values were normalized to controls within the group, and data were pooled for comparison between groups. Kruskal-Wallis test was used for comparing the overall effect of ringer, AA-EC01 and AANC on benzamil-sensitive Isc and TEER, and Mann Whitney U test was used for pairwise comparison within the group and for comparison between basal values for each cytokine at zero ng/mL or day zero with each concentration and time period studied. P<0.05 was considered significant, and NS indicates not significant.

## IL-13: Th2 cytokine (Abcam) added to HBEC culture medium
IL-13 2 ng/mL, 14 days
  TEER, normalized to control: 59.9±7.6%
IL-13 4 ng/mL, 14 days
  TEER, normalized to control (maximum reduction): 41.3±6.9%
IL-13 20 ng/mL, day 10
  TEER, normalized to control (maximum reduction): 48.7±3.6%
